Experimental data: PMC6445226, “Kinetic study on the inhibition of xanthine oxidase by acylated derivatives of flavonoids synthesised enzymatically” (Journal of Enzyme Inhibition and Medicinal Chemistry, 2017)
Like-named read-outs stand apart in the source and are kept apart here.

Tests used:
[1] = biological target: T1, xanthine oxidase from bovine milk (Bos taurus, UniProt P80457); assay: Inhibition of xanthine oxidase (XO) activity, uric acid formed from xanthine, absorbance at 290 nm; format: biochemical; details: for inhibition at 45 µM: read-out: Xanthine oxidase inhibition (XOI %); for IC50: value of x when y = 50 from straight line equation of XOI % vs concentration
T1 construct: xanthine oxidase from bovine milk; purchased Sigma-Aldrich Chemical Co., St. Louis, MO; host or cells: bovine milk (natural source)
T1 sequence (P80457 whole entry): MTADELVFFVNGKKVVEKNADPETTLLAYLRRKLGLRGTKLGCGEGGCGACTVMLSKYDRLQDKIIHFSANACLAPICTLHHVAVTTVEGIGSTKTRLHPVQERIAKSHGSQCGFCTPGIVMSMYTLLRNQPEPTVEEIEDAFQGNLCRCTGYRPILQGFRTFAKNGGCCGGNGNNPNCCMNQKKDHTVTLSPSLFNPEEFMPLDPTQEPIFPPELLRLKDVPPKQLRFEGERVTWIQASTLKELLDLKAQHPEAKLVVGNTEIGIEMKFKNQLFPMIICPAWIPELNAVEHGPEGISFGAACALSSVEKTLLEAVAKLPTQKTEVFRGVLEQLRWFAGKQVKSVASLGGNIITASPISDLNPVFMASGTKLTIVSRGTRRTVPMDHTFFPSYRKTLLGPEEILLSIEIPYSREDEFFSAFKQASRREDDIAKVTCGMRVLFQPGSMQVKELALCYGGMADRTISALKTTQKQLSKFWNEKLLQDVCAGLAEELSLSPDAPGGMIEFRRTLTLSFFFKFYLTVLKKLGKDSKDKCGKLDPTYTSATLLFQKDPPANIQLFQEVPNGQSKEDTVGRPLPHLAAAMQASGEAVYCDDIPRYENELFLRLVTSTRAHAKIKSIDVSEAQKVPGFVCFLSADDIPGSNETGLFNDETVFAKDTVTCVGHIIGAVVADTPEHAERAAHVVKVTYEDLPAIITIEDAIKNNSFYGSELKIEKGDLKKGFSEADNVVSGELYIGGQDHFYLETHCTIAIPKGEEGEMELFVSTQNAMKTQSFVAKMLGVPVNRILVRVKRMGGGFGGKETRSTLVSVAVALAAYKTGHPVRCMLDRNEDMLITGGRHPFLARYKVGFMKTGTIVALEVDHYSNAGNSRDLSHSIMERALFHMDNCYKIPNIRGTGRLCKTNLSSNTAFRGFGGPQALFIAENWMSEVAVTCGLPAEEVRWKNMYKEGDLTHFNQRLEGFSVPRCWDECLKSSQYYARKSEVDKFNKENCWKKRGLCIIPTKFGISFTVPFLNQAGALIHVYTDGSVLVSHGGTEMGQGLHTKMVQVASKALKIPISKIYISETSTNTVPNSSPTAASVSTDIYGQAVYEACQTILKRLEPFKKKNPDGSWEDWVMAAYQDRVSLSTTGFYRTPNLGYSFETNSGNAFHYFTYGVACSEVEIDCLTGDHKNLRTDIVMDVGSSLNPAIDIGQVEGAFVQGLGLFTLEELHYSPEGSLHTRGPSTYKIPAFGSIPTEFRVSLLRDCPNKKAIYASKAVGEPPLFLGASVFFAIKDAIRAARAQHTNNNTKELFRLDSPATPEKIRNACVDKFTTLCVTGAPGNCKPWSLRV
Description: Inhibition of XO activity was assessed by measuring the uric acid formed from the xanthine substrate. Solutions of xanthine in various concentrations in a 0.1 M, pH 7.4 phosphate buffer were incubated together with 100 μl of ethanol and the same volume of samples of the solutions with different concentrations (45 and 90 μM in a 0.1 M, pH 7.4 phosphate buffer). The samples were pre-incubated at 37 °C for 10 min. The XO solution (0.3 ml, 0.1 U/ml) was added to the reaction mixture and the flasks were incubated at 37 °C for 20 min. The enzymatic reaction was interrupted by adding 25 μl of 3.2% HCl. The absorption of the samples was measured using an ELISA reader Epoch, BioTek (Winooski, VT) at 290 nm. The uric acid production was calculated from the differential absorbance with a blank solution without xanthine oxidase. The control was a solution containing xanthine and XO.
Vmax (maximum reaction rate) and Km (Michaelis–Menten constant, that is the substrate concentration at 1/2 the maximum reaction rate) were calculated and the type of inhibition kinetics was identified using the Origin 8.6 program and the rectangular hyperbola model. […] Reaction rate (expressed as uric acid concentration in μmol/min) was obtained from the uric acid standard curve (y = 0.024x − 0.1242, R^2 = 0.9786).

[2] = Partition coefficient determination in octanol/water (k); format: physicochemical; details: octan-1-ol/water, 50 μM sample, UHPLC-MS; SD <0.01
Description: The partition coefficients of the untreated flavonoids in octanol/water (k) were analysed to determine their degrees of lipophilicity. In test tubes, 2.0 ml of a solution of the sample with a concentration of 50 μM were added to 2.0 ml of octanol saturated with water. The mixture was shaken for 1 min and then centrifuged for 15 min at 3000 rpm. […] The partition coefficient was obtained using the equation: k=Co/Ca×r; where Co = test compound concentration in octanol, Ca = test compound concentration in aqueous solution, r = ratio of the volumes of the oily and the aqueous phases.

XO [3] = test system: XO; parameters: method as in PMID 12231379; details: XO inhibition; cited from earlier work
XO [4] = test system: XO; parameters: method as in earlier work; details: XO inhibition; cited from earlier work
[5] = inhibitor at 45 μM, 250 μM of xanthine substrate, derivatives after 12 h of enzymatic acylation

Molecule | Partition coefficient (k) [2] | Xanthine oxidase inhibition (XOI %) [1, 5] [%] | IC50 [1] [µM] | further results
Oc1ncnc2[nH]ncc12 [Allopurinol, allopurinol] | – | – | – | inhibition at 45 µM [1]: 89.7%
COc1ccc([C@@H]2CC(=O)c3c(O)cc(O[C@@H]4O[C@H](CO[C@@H]5O[C@@H](C)[C@H](O)[C@@H](O)[C@H]5O)[C@@H](O)[C@H](O)[C@H]4O)cc3O2)cc1O [Hesperidin, hesperidin] | 0.42 | 8.24 ± 2.10 | 333 | –
C[C@@H]1O[C@@H](O[C@H]2[C@H](Oc3cc(O)c4c(c3)O[C@H](c3ccc(O)cc3)CC4=O)O[C@H](CO)[C@@H](O)[C@@H]2O)[C@H](O)[C@H](O)[C@H]1O [Naringin, naringin] | 0.37 | – | 206 | inhibition at 45 µM [1, 5]: 14.8 ± 4.8%
O=c1c(O)c(-c2ccc(O)c(O)c2)oc2cc(O)cc(O)c12 [Quercetin, quercetin] | 1.46 | – | – | –
C[C@@H]1O[C@@H](OC[C@H]2O[C@@H](Oc3c(-c4ccc(O)c(O)c4)oc4cc(O)cc(O)c4c3=O)[C@H](O)[C@@H](O)[C@@H]2O)[C@H](O)[C@H](O)[C@H]1O [Rutin, rutin] | 0.48 | – | – | –
O=c1c(O)c(-c2ccc(O)cc2)oc2cc(O)cc(O)c12 [kaempferol] | – | – | – | IC50 (XO [3]): 2.5 µM
O=c1c(O)c(-c2ccc(O)cc2O)oc2cc(O)cc(O)c12 [morin] | – | – | – | IC50 (XO [3]): 40 µM
Hesperidin decanoate | 0.83 | 16.42 ± 3.21 | 199 | –
Naringin decanoate | 0.86 | 25.61 ± 2.85 | 118 | –
Naringin octanoate | – | 28.80 ± 5.76 | 110 | –
isoquercitrin butyrate | – | – | – | IC50 (XO [4]): 144 µM
isoquercitrin oleate | – | – | – | IC50 (XO [4]): 27 µM
isoquercitrin stearate | – | – | – | IC50 (XO [4]): 61 µM
